Experimental data published in PubChem BioAssay AID248 (DTP/NCI, 2004).
Values joined by “and” are separate entries in the source; they are usually repeats but may differ in a detail not shown here. Identical values can stand only once. Inconclusive results and toxic doses are left out. Square brackets hold non-standard residues; d marks the D form. Peptide text beside a SMILES is read from it. * marks the point of attachment. ξ: configuration not given here. ξF = NC(Cc1ccccc1)C(=O)O; Cbz = O=C(OCc1ccccc1)*

System: L1210 leukemia ip in BDF1 mice, survival T/C
Experiment: NCI In Vivo Anticancer Drug Screen. Data for tumor model L1210 Leukemia (intraperitoneal) in B6D2F1 (BDF1) mice
Conditions: endpoint: mean survival time, higher = longer survival
Method in brief: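 Survival endpoint. Drug-treated group vs vehicle group, expressed as T divided by C. Tumor passaged by transplantation.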

[1] = dose: 100.0 mg/kg/injection, schedule: Q01DX001 (ip), vehicle: carboxymethylcellulose (CMC)
[2] = dose: 200.0 mg/kg/injection, schedule: Q01DX001 (ip), vehicle: carboxymethylcellulose (CMC)
[3] = dose: 400.0 mg/kg/injection, schedule: Q01DX001 (ip), vehicle: carboxymethylcellulose (CMC)
[4] = dose: 400.0 mg/kg/injection, schedule: Q01DX009 (ip), vehicle: saline
[5] = dose: 100.0 mg/kg/injection, schedule: Q04DX002 (ip), vehicle: saline with Tween-80
[6] = dose: 200.0 mg/kg/injection, schedule: Q04DX002 (ip), vehicle: saline with Tween-80
[7] = dose: 400.0 mg/kg/injection, schedule: Q04DX002 (ip), vehicle: saline with Tween-80
[8] = dose: 100.0 mg/kg/injection, schedule: Q01DX001 (ip), vehicle: saline
[9] = dose: 200.0 mg/kg/injection, schedule: Q01DX001 (ip), vehicle: saline
[10] = dose: 400.0 mg/kg/injection, schedule: Q01DX001 (ip), vehicle: saline
[11] = dose: 100.0 mg/kg/injection, schedule: Q04DX003 (ip), vehicle: Klucel (hydroxypropylcellulose) (HPC)
[12] = dose: 200.0 mg/kg/injection, schedule: Q04DX003 (ip), vehicle: Klucel (hydroxypropylcellulose) (HPC)
[13] = dose: 100.0 mg/kg/injection, schedule: Q01DX009 (ip), vehicle: Klucel (hydroxypropylcellulose) (HPC)
[14] = dose: 200.0 mg/kg/injection, schedule: Q01DX009 (ip), vehicle: Klucel (hydroxypropylcellulose) (HPC)
[15] = dose: 400.0 mg/kg/injection, schedule: Q01DX009 (ip), vehicle: Klucel (hydroxypropylcellulose) (HPC)
[16] = dose: 400.0 mg/kg/injection, schedule: Q04DX003 (ip), vehicle: Klucel (hydroxypropylcellulose) (HPC)
[17] = dose: 100.0 mg/kg/injection, schedule: Q01DX001 (ip), vehicle: saline with Tween-80
[18] = dose: 200.0 mg/kg/injection, schedule: Q01DX001 (ip), vehicle: saline with Tween-80
[19] = dose: 100.0 mg/kg/injection, schedule: Q01DX009 (ip), vehicle: saline with Tween-80
[20] = dose: 200.0 mg/kg/injection, schedule: Q01DX009 (ip), vehicle: saline with Tween-80
[21] = dose: 400.0 mg/kg/injection, schedule: Q01DX009 (ip), vehicle: saline with Tween-80

## OCC1OC(n2cnc3nccnc32)C(O)C1O (stereo not drawn)
dose: 100.0 mg/kg/injection, schedule: Q01DX005 (ip), vehicle: saline
  T/C: 98 % of control
dose: 200.0 mg/kg/injection, schedule: Q01DX005 (ip), vehicle: saline
  T/C: 110 % of control

## Cn1c(=O)c2c(nc(N/N=C/c3ccc(O)cc3)n2C)n(C)c1=O
dose: 44.0 mg/kg/injection, schedule: Q01DX Z (ip), vehicle: methylcellulose (MC)
  T/C: 94 % of control
dose: 66.0 mg/kg/injection, schedule: Q01DX Z (ip), vehicle: methylcellulose (MC)
  T/C: 97 % of control
dose: 100.0 mg/kg/injection, schedule: Q01DX Z (ip), vehicle: methylcellulose (MC)
  T/C: 96 % of control

## N#CCCC(CCC#N)(S(=O)(=O)Cc1ccccc1)S(=O)(=O)Cc1ccccc1
[1]
  T/C: 101 % of control
[2]
  T/C: 101 % of control
[3]
  T/C: 89 % of control

## O=C(COc1ccccc1C(=O)O)NCc1ccc(Cl)cc1
dose: 100.0 mg/kg/injection, schedule: Q04DX003 (ip), vehicle: gum acacia
  T/C: 97 % of control
dose: 200.0 mg/kg/injection, schedule: Q04DX003 (ip), vehicle: gum acacia
  T/C: 95 % of control
dose: 400.0 mg/kg/injection, schedule: Q04DX003 (ip), vehicle: gum acacia
  T/C: 96 % of control

## C[N+]1(C2CC3CCC2C3=O)CCOCC1 (stereo not drawn)
dose: 75.0 mg/kg/injection, schedule: Q01DX001 (ip), vehicle: saline
  T/C: 97 % of control
dose: 150.0 mg/kg/injection, schedule: Q01DX001 (ip), vehicle: saline
  T/C: 98 % of control

## CC(c1c[nH]c2ccccc12)N1CCCCC1 (stereo not drawn)
dose: 12.5 mg/kg/injection, schedule: Q01DX009 (ip), vehicle: saline
  T/C: 115 % of control
dose: 25.0 mg/kg/injection, schedule: Q01DX009 (ip), vehicle: saline
  T/C: 107 % of control
dose: 25.0 mg/kg/injection, schedule: Q04DX003 (ip), vehicle: acetone
  T/C: 103 % of control
dose: 50.0 mg/kg/injection, schedule: Q01DX009 (ip), vehicle: saline
  T/C: 109 % of control
dose: 50.0 mg/kg/injection, schedule: Q04DX003 (ip), vehicle: acetone
  T/C: 95 % of control
[1]
  T/C: 96 % of control

## CC(=O)Nc1ccc2c(c1)-c1ccc(F)cc1C2
[1]
  T/C: 94 % of control
[2]
  T/C: 96 % of control
[3]
  T/C: 102 % of control

## CC([NH-])c1ccccc1.[Cl][Pt]([Cl])[Cl] (stereo not drawn)
dose: 100.0 mg/kg/injection, schedule: Q01DX009 (ip), vehicle: saline
  T/C: 97 % of control
dose: 200.0 mg/kg/injection, schedule: Q01DX009 (ip), vehicle: saline
  T/C: 92 % of control
[4]
  T/C: 87 % of control

## CCOC(=O)C12CCC(C(=O)OCC)(CC1=O)C(=O)C2
[5]
  T/C: 88 % of control
[6]
  T/C: 95 % of control
[7]
  T/C: 98 % of control

## COc1cccc(C2CCCCCC2OS(C)(=O)=O)c1OC (stereo not drawn)
[8]
  T/C: 109 % of control
dose: 100.0 mg/kg/injection, schedule: Q04DX003 (ip), vehicle: saline
  T/C: 102 % of control
[9]
  T/C: 102 % of control
dose: 200.0 mg/kg/injection, schedule: Q04DX003 (ip), vehicle: saline
  T/C: 109 % of control
[10]
  T/C: 112 % of control
dose: 400.0 mg/kg/injection, schedule: Q04DX003 (ip), vehicle: saline
  T/C: 102 % of control

## CCC(CC)C(=O)O.[Ag]
[8]
  T/C: 101 % of control

## Cc1cc2cc3ccc(Cl)nn3c2n[n+]1[O-]
dose: 62.5 mg/kg/injection, schedule: Q04DX002 (ip), vehicle: Klucel (hydroxypropylcellulose) (HPC)
  T/C: 100 % of control
dose: 125.0 mg/kg/injection, schedule: Q04DX002 (ip), vehicle: Klucel (hydroxypropylcellulose) (HPC)
  T/C: 122 % of control

## CC12CCC(C1)C(C)(C)C2C(N)=O (stereo not drawn)
[11]
  T/C: 93 % of control
[12]
  T/C: 93 % of control

## N=c1ccn(C2OC(CO)C(O)C2O)c(=O)n1O (stereo not drawn)
dose: 5.0 mg/kg/injection, schedule: Q01DX009 (ip), vehicle: saline
  T/C: 123 % of control
dose: 10.0 mg/kg/injection, schedule: Q01DX009 (ip), vehicle: saline
  T/C: 100 % of control
[8]
  T/C: 105 % of control
[9]
  T/C: 108 % of control
[10]
  T/C: 103 % of control and 105 % of control
[4]
  T/C: 167 % of control
dose: 600.0 mg/kg/injection, schedule: Q01DX001 (ip), vehicle: saline
  T/C: 105 % of control
dose: 600.0 mg/kg/injection, schedule: Q01DX009 (ip), vehicle: saline
  T/C: 94 % of control
dose: 800.0 mg/kg/injection, schedule: Q01DX001 (ip), vehicle: saline
  T/C: 110 % of control
dose: 800.0 mg/kg/injection, schedule: Q01DX009 (ip), vehicle: saline
  T/C: 94 % of control

## N=c1ccn(O)cc1[N+](=O)[O-]
[8]
  T/C: 108 % of control
[9]
  T/C: 120 % of control
[10]
  T/C: 114 % of control

## OC1(C#CC2(O)c3ccccc3-c3ccccc32)c2ccccc2-c2ccccc21
[13]
  T/C: 93 % of control
[11]
  T/C: 106 % of control
[14]
  T/C: 97 % of control
[12]
  T/C: 106 % of control
[15]
  T/C: 93 % of control
[16]
  T/C: 100 % of control

## OC1(c2ccccc2)C=C(c2ccccc2)C=C(c2ccccc2)O1 (stereo not drawn)
dose: 50.0 mg/kg/injection, schedule: Q01DX001 (ip), vehicle: Klucel (hydroxypropylcellulose) (HPC)
  T/C: 87 % of control
dose: 100.0 mg/kg/injection, schedule: Q01DX001 (ip), vehicle: Klucel (hydroxypropylcellulose) (HPC)
  T/C: 92 % of control
dose: 200.0 mg/kg/injection, schedule: Q01DX001 (ip), vehicle: Klucel (hydroxypropylcellulose) (HPC)
  T/C: 94 % of control

## CN(C)c1ccc(C(=O)Oc2ccc([N+](=O)[O-])cc2)cc1
[13]
  T/C: 90 % of control
[11]
  T/C: 95 % of control
[14]
  T/C: 101 % of control
[12]
  T/C: 98 % of control
[15]
  T/C: 102 % of control
[16]
  T/C: 96 % of control

## CCc1cc(C(C)(C)C)c(O)c(C(C)(C)C)c1
[17]
  T/C: 95 % of control
[18]
  T/C: 102 % of control
dose: 400.0 mg/kg/injection, schedule: Q01DX001 (ip), vehicle: saline with Tween-80
  T/C: 95 % of control

## O/N=C/c1ccc2c(c1)OCO2
dose: 50.0 mg/kg/injection, schedule: Q01DX001 (ip), vehicle: saline
  T/C: 96 % of control
[8]
  T/C: 96 % of control
dose: 100.0 mg/kg/injection, schedule: Q04DX002 (ip), vehicle: gum acacia
  T/C: 106 % of control
[9]
  T/C: 102 % of control
dose: 200.0 mg/kg/injection, schedule: Q04DX002 (ip), vehicle: gum acacia
  T/C: 110 % of control
[10]
  T/C: 96 % of control
dose: 400.0 mg/kg/injection, schedule: Q04DX002 (ip), vehicle: gum acacia
  T/C: 92 % of control

## O=C(CNC(=O)OCc1ccccc1)NC(Cc1ccccc1)C(=O)O (stereo not drawn) (Cbz-Gly-[ξF]-OH)
dose: 50.0 mg/kg/injection, schedule: Q01DX009 (ip), vehicle: Klucel (hydroxypropylcellulose) (HPC)
  T/C: 95 % of control
dose: 50.0 mg/kg/injection, schedule: Q04DX003 (ip), vehicle: Klucel (hydroxypropylcellulose) (HPC)
  T/C: 93 % of control
[13]
  T/C: 97 % of control
[11]
  T/C: 98 % of control
[14]
  T/C: 93 % of control
[12]
  T/C: 100 % of control

## N/C(=N\N=C\c1c(F)c(F)c(F)c(F)c1F)N[N+](=O)[O-]
[19]
  T/C: 102 % of control
[20]
  T/C: 97 % of control
[21]
  T/C: 94 % of control

## FC1(F)SC2c3ccccc3CC2C1(F)F (stereo not drawn)
[13]
  T/C: 97 % of control
[14]
  T/C: 101 % of control
[15]
  T/C: 95 % of control

## O=C(/C=C\c1cccc2ccccc12)c1ccc2ccccc2c1
[19]
  T/C: 100 % of control
[5]
  T/C: 88 % of control
[20]
  T/C: 90 % of control
[6]
  T/C: 88 % of control
[21]
  T/C: 93 % of control
[7]
  T/C: 88 % of control

## Nc1ccnc2snnc12
dose: 50.0 mg/kg/injection, schedule: Q01DX009 (ip), vehicle: saline with Tween-80
  T/C: 96 % of control
dose: 50.0 mg/kg/injection, schedule: Q04DX003 (ip), vehicle: saline with Tween-80
  T/C: 93 % of control
[17]
  T/C: 111 % of control
[19]
  T/C: 90 % of control
dose: 100.0 mg/kg/injection, schedule: Q04DX003 (ip), vehicle: saline with Tween-80
  T/C: 102 % of control
[18]
  T/C: 98 % of control
[20]
  T/C: 95 % of control
dose: 200.0 mg/kg/injection, schedule: Q04DX003 (ip), vehicle: saline with Tween-80
  T/C: 107 % of control
